Source: PubChem BioAssay AID248 (DTP/NCI, 2004)
Several values for one entry are separate records, joined by “and”; a condition that tells them apart may be missing. Equal values may be shown once. Toxic doses and inconclusive results are not listed.

System: L1210 leukemia ip in BDF1 mice, survival T/C
Experiment: NCI In Vivo Anticancer Drug Screen. Data for tumor model L1210 Leukemia (intraperitoneal) in B6D2F1 (BDF1) mice
Details: endpoint: mean survival time, higher = longer survival
Method in brief: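 Transplanted-tumor mice were given test agent; controls received vehicle only. Survival readings from the two groups were divided (treated over control).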

[1] = dose: 100.0 mg/kg/injection, schedule: Q01DX009 (ip), vehicle: Klucel (hydroxypropylcellulose) (HPC)
[2] = dose: 200.0 mg/kg/injection, schedule: Q01DX009 (ip), vehicle: Klucel (hydroxypropylcellulose) (HPC)

Cc1ccc2ccc3ccc4ccccc4c3c2c1
T/C (dose: 50.0 mg/kg/injection, schedule: Q01DX001 (ip), vehicle: Klucel (hydroxypropylcellulose) (HPC)): 101 % of control | T/C (dose: 100.0 mg/kg/injection, schedule: Q01DX001 (ip), vehicle: Klucel (hydroxypropylcellulose) (HPC)): 95 % of control | T/C (dose: 200.0 mg/kg/injection, schedule: Q01DX001 (ip), vehicle: Klucel (hydroxypropylcellulose) (HPC)): 101 % of control

O=C(NCCCCCCCCCCNC(=O)N1CC1)N1CC1
T/C (dose: 0.12 mg/kg/injection, schedule: Q01DX Z (ip), vehicle: carboxymethylcellulose (CMC)): 94 % of control | T/C (dose: 0.25 mg/kg/injection, schedule: Q01DX Z (ip), vehicle: carboxymethylcellulose (CMC)): 96 % of control | T/C (dose: 0.4 mg/kg/injection, schedule: Q01DX Z (ip), vehicle: carboxymethylcellulose (CMC)): 115 % of control | T/C (dose: 0.5 mg/kg/injection, schedule: Q01DX Z (ip), vehicle: carboxymethylcellulose (CMC)): 108 % of control | T/C (dose: 0.5 mg/kg/injection, schedule: Q01DX Z (ip), vehicle: saline): 110 % of control | T/C (dose: 0.8 mg/kg/injection, schedule: Q01DX Z (ip), vehicle: carboxymethylcellulose (CMC)): 123 % of control | T/C (dose: 0.8 mg/kg/injection, schedule: Q01DX Z (ip), vehicle: saline): 113 % of control | T/C (dose: 1.0 mg/kg/injection, schedule: Q01DX Z (ip), vehicle: carboxymethylcellulose (CMC)): 118 % of control | T/C (dose: 1.2 mg/kg/injection, schedule: Q01DX Z (ip), vehicle: saline): 124 % of control | T/C (dose: 1.8 mg/kg/injection, schedule: Q01DX Z (ip), vehicle: carboxymethylcellulose (CMC)): 155 % of control | T/C (dose: 1.8 mg/kg/injection, schedule: Q01DX Z (ip), vehicle: saline): 118 % of control | T/C (dose: 2.6 mg/kg/injection, schedule: Q01DX Z (ip), vehicle: carboxymethylcellulose (CMC)): 155 % of control and 160 % of control | T/C (dose: 2.7 mg/kg/injection, schedule: Q01DX Z (ip), vehicle: saline): 168 % of control | T/C (dose: 4.0 mg/kg/injection, schedule: Q01DX Z (ip), vehicle: carboxymethylcellulose (CMC)): 119 % of control | T/C (dose: 5.0 mg/kg/injection, schedule: Q01DX001 (ip), vehicle: saline): 119 % of control | T/C (dose: 6.0 mg/kg/injection, schedule: Q01DX Z (ip), vehicle: carboxymethylcellulose (CMC)): 96 % of control | T/C (dose: 6.0 mg/kg/injection, schedule: Q01DX Z (ip), vehicle: saline): 112 % of control

Cn1/c(=N/N=C(N)N)ccc2ccccc21
T/C (dose: 15.0 mg/kg/injection, schedule: Q01DX Z (ip), vehicle: methylcellulose (MC)): 100 % of control | T/C (dose: 30.0 mg/kg/injection, schedule: Q01DX Z (ip), vehicle: methylcellulose (MC)): 108 % of control | T/C (dose: 30.0 mg/kg/injection, schedule: Q01DX Z (oral), vehicle: methylcellulose (MC)): 95 % of control | T/C (dose: 60.0 mg/kg/injection, schedule: Q01DX Z (ip), vehicle: methylcellulose (MC)): 107 % of control | T/C (dose: 60.0 mg/kg/injection, schedule: Q01DX Z (oral), vehicle: methylcellulose (MC)): 101 % of control | T/C (dose: 120.0 mg/kg/injection, schedule: Q01DX Z (ip), vehicle: methylcellulose (MC)): 103 % of control | T/C (dose: 120.0 mg/kg/injection, schedule: Q01DX Z (oral), vehicle: methylcellulose (MC)): 97 % of control | T/C (dose: 240.0 mg/kg/injection, schedule: Q01DX Z (ip), vehicle: methylcellulose (MC)): 98 % of control | T/C (dose: 240.0 mg/kg/injection, schedule: Q01DX Z (oral), vehicle: methylcellulose (MC)): 95 % of control | T/C (dose: 375.0 mg/kg/injection, schedule: Q01DX Z (oral), vehicle: methylcellulose (MC)): 95 % of control

Cc1ccc(Cl)c(NC(=O)Nc2cccc(C(F)(F)F)c2)c1
T/C [1]: 87 % of control | T/C [2]: 87 % of control | T/C (dose: 400.0 mg/kg/injection, schedule: Q01DX009 (ip), vehicle: Klucel (hydroxypropylcellulose) (HPC)): 90 % of control

COC(=O)N1C=Cc2ccccc2C1C#N (configuration not stated)
T/C (dose: 100.0 mg/kg/injection, schedule: Q04DX003 (ip), vehicle: saline): 107 % of control

Fc1cc(F)c(F)c(Nc2c(F)c(F)c(Br)c(F)c2F)c1F
T/C (dose: 25.6 mg/kg/injection, schedule: Q04DX002 (ip), vehicle: saline with Tween-80): 92 % of control | T/C (dose: 64.0 mg/kg/injection, schedule: Q04DX002 (ip), vehicle: saline with Tween-80): 103 % of control | T/C (dose: 160.0 mg/kg/injection, schedule: Q04DX002 (ip), vehicle: saline with Tween-80): 92 % of control | T/C (dose: 400.0 mg/kg/injection, schedule: Q04DX002 (ip), vehicle: saline with Tween-80): 95 % of control

O=c1c(CCO)c(C2CC2)n2n1CCCC2
T/C (dose: 9.38 mg/kg/injection, schedule: Q01DX001 (ip), vehicle: other): 94 % of control | T/C (dose: 18.75 mg/kg/injection, schedule: Q01DX001 (ip), vehicle: other): 103 % of control

ClC12CCCC3CCCC(CCC1)C32 (configuration not stated)
T/C (dose: 100.0 mg/kg/injection, schedule: Q01DX009 (ip), vehicle: saline with Tween-80): 101 % of control | T/C (dose: 100.0 mg/kg/injection, schedule: Q04DX003 (ip), vehicle: Klucel (hydroxypropylcellulose) (HPC)): 103 % of control | T/C (dose: 200.0 mg/kg/injection, schedule: Q01DX009 (ip), vehicle: saline with Tween-80): 90 % of control | T/C (dose: 200.0 mg/kg/injection, schedule: Q04DX003 (ip), vehicle: Klucel (hydroxypropylcellulose) (HPC)): 97 % of control | T/C (dose: 400.0 mg/kg/injection, schedule: Q01DX009 (ip), vehicle: saline with Tween-80): 89 % of control | T/C (dose: 400.0 mg/kg/injection, schedule: Q04DX003 (ip), vehicle: Klucel (hydroxypropylcellulose) (HPC)): 96 % of control

Cc1cc(C(=O)O)c(C)o1
T/C [1]: 96 % of control | T/C [2]: 93 % of control

CN=C(N)c1ccc(NC(=O)Nc2ccc(NC(=O)Nc3ccc(C(N)=NC)cc3)cc2)cc1
T/C (dose: 50.0 mg/kg/injection, schedule: Q01DX Z (oral), vehicle: saline): 95 % of control | T/C (dose: 60.0 mg/kg/injection, schedule: Q01DX Z (ip), vehicle: saline): 157 % of control | T/C (dose: 100.0 mg/kg/injection, schedule: Q01DX Z (oral), vehicle: saline): 89 % of control | T/C (dose: 120.0 mg/kg/injection, schedule: Q01DX Z (ip), vehicle: saline): 205 % of control | T/C (dose: 200.0 mg/kg/injection, schedule: Q01DX Z (oral), vehicle: saline): 95 % of control | T/C (dose: 240.0 mg/kg/injection, schedule: Q01DX Z (ip), vehicle: saline): 108 % of control | T/C (dose: 400.0 mg/kg/injection, schedule: Q01DX Z (oral), vehicle: saline): 96 % of control | T/C (dose: 480.0 mg/kg/injection, schedule: Q01DX Z (ip), vehicle: saline): 90 % of control

O=C1c2ccccc2C(=O)N1c1cc(O)cc(O)c1
T/C (dose: 100.0 mg/kg/injection, schedule: Q01DX009 (ip), vehicle: water): 95 % of control | T/C (dose: 100.0 mg/kg/injection, schedule: Q04DX003 (ip), vehicle: water): 96 % of control | T/C (dose: 200.0 mg/kg/injection, schedule: Q01DX009 (ip), vehicle: water): 95 % of control | T/C (dose: 200.0 mg/kg/injection, schedule: Q04DX003 (ip), vehicle: water): 94 % of control | T/C (dose: 400.0 mg/kg/injection, schedule: Q01DX009 (ip), vehicle: water): 101 % of control | T/C (dose: 400.0 mg/kg/injection, schedule: Q04DX003 (ip), vehicle: water): 96 % of control
